First: O=Cc1sc2ccccc2c1-c1ccccc1
Second: O=c1[nH]c2sc(-c3ccccc3)nc2c2ccccc12
The melting point of the first is lower: 86 to 89 °C for the first, greater than 310 °C for the second.

Compared with O=C(O)CN1CCC(n2nc(-c3c(-c4ccccc4)nn4ccccc34)ccc2=O)C1=O (centres undefined), COc1ccn2nc(-c3ccccc3)c(-c3ccc(=O)n(C4CCN(C)CC4)n3)c2c1 is lower in melting point: 250 to 251 °C for the first, 154 to 155 °C for the second.

Compared with COC(=O)c1ccc(I)cc1N, COC(=O)C1=CCC2=Nc3ccccc3C2=C1C(=O)OC is higher in melting point: 63 to 67 °C for the first, 219 °C for the second.

Compared with CCCCC(=O)Nc1ccc(C2=N[C@H]3CCN(C)C[C@H]3c3cc(OC)c(OC)cc32)cc1 (relative stereo), CCOC(=O)COc1cc(-c2cc3nccnc3[nH]2)ccc1OC is lower in melting point: 230 to 235 °C for the first, 183 to 184 °C for the second.

Compared with CC(C)(C)OC(=O)N1CCC(n2cc(-c3ccc(Oc4ccccc4)cc3)c3c(N)ncnc32)CC1, CC(C)(C)OC(=O)N1CCN(c2cccc3ccc(-n4nnc5ncccc54)cc23)CC1 is higher in melting point: 168 to 170 °C for the first, 173 to 175 °C for the second.

CC(C)(C)c1cc(-c2nnc(NC(N)=S)s2)cc(C(C)(C)C)c1O and CC(C)(C)c1cc(C(=O)ON(Cc2ccccc2)Cc2ccccc2)cc(C(C)(C)C)c1O cannot be ordered by melting point: greater than 80 °C for the first, 90 to 92 °C for the second.

Compared with COc1cc(OC(C)C(=O)O)c2c3c(C(N)=O)cccc3n(Cc3ccccc3)c2c1 (centres undefined), COc1cccc(CN2CCC(N3C(=O)Nc4ccccc4C3c3cccc(O)c3)CC2)c1 (centres undefined) is higher in melting point: 170 to 172 °C for the first, greater than 250 °C for the second.

Compared with c1ccc(C2CNc3c(cnc4ccccc34)O2)cc1 (centres undefined), COCCc1nc2c(N)nc3ccccc3c2n1CCCNC(=O)Nc1ccccc1 is lower in melting point: 194 to 195 °C for the first, 40 °C for the second.

First: CC(C)OC(=O)N1CC(=O)Nc2ccc(-c3cccc(Cl)c3)cc21
Second: CCOC(=O)c1nnc2n1CC(=O)N(C)c1ccc(Cl)cc1-2
The melting point of the first is lower: 174 to 176 °C for the first, 201 to 202 °C for the second.

First: O=C(c1ccc(F)cc1)C1CCN(CCN2C(=O)Nc3ccc(Cl)cc3C2c2ccccc2)CC1 (centres undefined)
Second: O=C(c1ccccc1)c1cnn2c(-c3cccc(N4CCCCC4=O)c3)ccnc12
The melting point of the first is higher: 196 °C for the first, 160 to 162 °C for the second.

First: COc1ccc(Cn2nc(-c3ccc(SC)cc3)c(-c3ccc(F)cc3)cc2=S)cc1
Second: Cc1cccc(-c2nn(C)cc2-c2ccc(F)c(-c3ccc(S(C)(=O)=O)cc3)c2)n1
The melting point of the first is higher: 113 °C for the first, 66 to 67 °C for the second.

Compared with Cc1[nH]c(C=O)c(C)c1-c1nc2ccc(C(=O)c3ccccc3)cc2[nH]1, Nc1c(C(=O)c2cccnc2)[nH]c2cc(Cl)ccc12 is lower in melting point: 253 to 255 °C for the first, 188 to 189 °C for the second.

First: Cc1c(O)ccc2c(=O)c(-c3ccc([N+](=O)[O-])cc3)coc12
Second: CN(C)Cc1ccccc1Sc1ccc([N+](=O)[O-])cc1[N+](=O)[O-]
The melting point of the first is higher: 345 °C for the first, 128 to 129 °C for the second.

First: CCCCCCc1ccc(-c2ccc(-c3ncc(C(=O)OCC)c(O)n3)cc2)cc1
Second: CCCCN(Cc1ccc(-c2ccccc2-c2nnn[nH]2)cc1)c1ncc(C(=O)O)s1
The melting point of the first is lower: 91.6 to 91.9 °C for the first, 183 to 184 °C for the second.

First: CCC(O)(c1c(C(C)C)nn2ccccc12)C(C)C (centres undefined)
Second: COc1ccccc1C(C)(O)c1ocnc1C (centres undefined)
The melting point of the first is higher: 96 to 98 °C for the first, 74 to 75 °C for the second.

First: O=S(=O)(c1cccc(C(F)(F)F)c1)c1cc(Br)nc(N2CCNCC2)c1
Second: COc1ccnc(CS(=O)c2nc3c(C(F)(F)F)cccc3[nH]2)c1 (centres undefined)
The melting point of the first is higher: 160 to 162 °C for the first, 150 to 151 °C for the second.

Compared with Cc1noc(C)c1-c1ccccc1OC1SCC(O)C(O)C1O (centres undefined), Cc1nc(-c2ccccc2C(F)(F)F)c(CCC(=O)O)o1 is higher in melting point: 110 to 117 °C for the first, 118 to 119 °C for the second.

First: CC(=CCc1c(O)c(C)c2c(c1OS(=O)(=O)c1ccc(C)cc1)C(=O)OC2)CCC(=O)O
Second: COc1cc(C(=O)NS(=O)(=O)c2ccccc2C)ccc1Cc1cccc2ccc(CCCC(=O)N(C)C)cc12
The melting point of the first is lower: 148 to 149 °C for the first, 166 to 168 °C for the second.

First: COC1=C(OC)C(=O)C2=C(CCC(CCOc3ccc(F)cc3)CC2)C1=O
Second: O=C1NCCN1S(=O)(=O)c1ccc(F)cc1
The melting point of the first is lower: 91 to 93 °C for the first, 183 to 185 °C for the second.

CCNC(=O)c1ccc(N2CCN(Cc3cc4c(c(OC)c3)OCC(=O)N4)CC2)c(C)c1 and CCNC(=O)c1ccc(N2CCN(Cc3cc4c(c(OC(F)F)c3)OC(C)C(=O)N4)CC2)cc1 (centres undefined) cannot be ordered by melting point: 208 to 225 °C for the first, 219 to 224 °C for the second.

Compared with COc1ccc(OC)c(C=C2CCn3c2nc2ccc(Cl)cc2c3=O)c1, CCN1CCCC(NC(=O)c2ccccc2Nc2ccnc3cc(Cl)ccc23)C1 (centres undefined) is lower in melting point: 220 to 222 °C for the first, 187 to 188 °C for the second.

First: Oc1c(Cl)cc(C2=NCCO2)cc1Cl
Second: Cc1cc([N+](=O)[O-])cc2c(Cl)c(C#N)cnc12
The melting point of the first is lower: 189 to 191 °C for the first, 210 to 212 °C for the second.

Compared with Cc1oc(-c2ccco2)nc1COc1ccc(Cn2cc(CCC(=O)O)c(OCc3ccccc3)n2)cc1, CCCCc1nc(Cl)c(CO)n1Cc1ccc(-c2ccccc2-c2nc(=O)o[nH]2)cc1 is higher in melting point: 104 to 105 °C for the first, 202 to 205 °C for the second.

Compared with NCCc1ccc(OCC2CCCO2)c(S(N)(=O)=O)c1 (centres undefined), NS(=O)(=O)c1cccc(C=O)c1 is lower in melting point: 135 to 140 °C for the first, 108 to 109 °C for the second.

Compared with CCNc1nc(S(C)=O)ncc1C(=O)OCC (centres undefined), CCOC(=O)C(=CNc1cccc(OCC)n1)C(=O)OCC is higher in melting point: 54 to 56 °C for the first, 58 to 60 °C for the second.

Compared with C=C(c1ccc(OC)cc1)c1ccc(N(C)C)cc1, COc1ccc(CCNc2ncnc3occc23)cc1 is higher in melting point: 124 to 126 °C for the first, 135 to 136 °C for the second.

First: CCSc1nc2c(cc1F)c(=O)c(C(=O)O)cn2C(C)(C)C
Second: CSc1ncncc1C(c1ccccc1F)C(C)(C)C(=O)O (centres undefined)
The melting point of the first is higher: 215 °C for the first, 204 to 205 °C for the second.

First: CSc1cc(C(C)(C)C)n[nH]1
Second: CC(C)(C)OC(=O)NC1Cc2ccccc2C2OC12 (centres undefined)
The melting point of the first is higher: 135 to 136 °C for the first, 118 to 119 °C for the second.

First: COc1cccc(CC(=O)O)c1OCCCc1cn(-c2ccc(Br)cn2)nc1C(C)C
Second: COCOc1ccc(CCCO)c(Oc2ncc(C(F)(F)F)cc2Cl)c1
The melting point of the first is higher: 152 to 153 °C for the first, 92.5 to 93.5 °C for the second.

First: C#CCn1c(=O)nc(-c2ccc3c(c2)OCO3)c2cc3c(cc21)OCO3
Second: CN1C(=O)COc2cccc3nc4c(c1c23)CCCC4
The melting point of the first is higher: 235 to 240 °C for the first, 176 to 178 °C for the second.

First: COCCOC(=O)N=NC(=O)OCCOC
Second: COC(=O)C1=C(C)NC(C)=C(C(=O)OCCN2CCN(c3ccccc3OC)CC2)C1c1cccc([N+](=O)[O-])c1 (centres undefined)
The melting point of the first is lower: 39.9 to 40.4 °C for the first, 58 °C for the second.

Compared with O=S1(=O)c2cc(C=C(c3ccccc3)c3ccccc3)ccc2N(c2ccccc2)c2ccc(C=C(c3ccccc3)c3ccccc3)cc21, CCn1c2ccccc2c2cc(-n3c(CC(=O)O)c(C(=O)O)c4cc(Oc5ccc(C(F)(F)F)cc5)ccc43)ccc21 is lower in melting point: 269 to 274 °C for the first, 243 to 245 °C for the second.

First: COc1ccnc(N2CCN(C(=O)c3cc4ccccc4[nH]3)CC2)n1
Second: COC(=O)Nc1cc(N2CC=CCC2)nc2nc(=O)on12
The melting point of the first is lower: 202 to 203 °C for the first, 213 to 214 °C for the second.

Compared with CN1C(=O)CC[C@]2(C)c3ccc(-c4c(F)c(F)c(Cl)c(F)c4F)cc3CC[C@@H]12, CCOC(=O)Cc1ccc2c(c1)CC(CC(=O)O)C2 (centres undefined) is lower in melting point: 150 to 151 °C for the first, 56 to 57 °C for the second.

Compared with O=C(/C=C/c1ccc2ccccc2n1)NO, OCCCCCc1ccc2ccccc2c1O is lower in melting point: 160 °C for the first, 43 to 46 °C for the second.

Compared with Cc1cc(C)nc(NC(=O)NS(=O)(=O)c2ccccc2OS(=O)(=O)N(C)C)n1, CCCCc1nc(SC)c(C(=O)OCC)n1Cc1cccc(-c2ccccc2S(=O)(=O)NC#N)c1 is lower in melting point: 195 to 196 °C for the first, 118 °C for the second.

Compared with O=C(C1CCCCC1)C1CCN(C(=O)c2cc(O)c(O)cc2[N+](=O)[O-])CC1, Cc1c(C(=O)Nc2ccc(N3CCC(O)CC3)c(C#N)c2)cnn1-c1ccc(F)cc1 is lower in melting point: 240 °C for the first, 215 to 216 °C for the second.

First: Cc1cccc(-c2nc3cccnn3c2-c2ccnc(N)c2)c1
Second: COc1ccc(S(=O)(=O)N2c3ccccc3-c3ccccc3C2C)cc1C (centres undefined)
The melting point of the first is higher: 188 to 189 °C for the first, 171 to 173 °C for the second.

First: CCCC(C)SC1NN=C(c2ccncc2)N1c1ccccc1 (centres undefined)
Second: Cc1ccc(N[C@H](Cc2c[nH]c3ccccc23)C(=O)O)cc1
The melting point of the first is lower: 96 to 97 °C for the first, 146 to 148 °C for the second.

First: CCOC(=O)C(=O)Nc1ccc(Cl)c(C(F)(F)F)c1
Second: CCOP(=O)(CC(=O)NNc1nc2ccc(C(F)(F)F)cc2n(O)c1=O)OCC
The melting point of the first is lower: 128 to 130 °C for the first, 193 to 196 °C for the second.

First: CC(C)(C)NC(=O)[C@@H]1C[C@H](Cl)CN1C(=O)[C@@H](O)[C@H](Cc1ccccc1)NC(=O)[C@H](CC(N)=O)NC(=O)c1cnc2ccccc2n1
Second: CC(C)(C)NC(=O)[C@@H]1CCCN1C(=O)[C@@H](O)[C@H](Cc1ccccc1)NC(=O)[C@H](CC(N)=O)NC(=O)COc1ccc(NC(=O)OCc2ccccc2)cc1
The melting point of the first is higher: 132 to 134 °C for the first, 103 to 105 °C for the second.

Compared with CCCCNc1nc(N)nc2c1ncn2C1CC(N=[N+]=[N-])C(CO)O1 (centres undefined), CCCCNC(=O)NS(=O)(=O)c1ccc(CCNC(=O)N2CCCCC2=O)cc1 is higher in melting point: 44 to 47 °C for the first, 156 to 158 °C for the second.

First: CC12CCC3C(CCC4CC(F)CCC43C)C1CCC2O (centres undefined)
Second: ON=C1CCC2(CC1)Cc1ccccc1C2
The melting point of the first is higher: 150 to 151 °C for the first, 120 to 122 °C for the second.

CNC(=O)c1cnn(-c2ccc(Br)cc2)c1C#N and Clc1ccnc2[nH]c3ccc(Br)cc3c12 cannot be ordered by melting point: 240 to 241 °C for the first, greater than 220 °C for the second.

Compared with CC(OC(C)c1ncn2c1CN(C)C(=O)c1cc(Cl)ccc1-2)c1ncn2c1CN(C)C(=O)c1cc(Cl)ccc1-2 (centres undefined), CCCn1c(=O)c2[nH]c(/C=C/c3cc(OC)c(OC)cc3OC)nc2n(CCC)c1=O is higher in melting point: 193 to 194 °C for the first, 254 to 256 °C for the second.

Compared with CCOC(=O)C1=C(C)NN=C(CC)C1c1cccc(C#N)c1 (centres undefined), CC(C)[C@@H]1COC(=O)N1C(=O)CCc1ccccc1 is lower in melting point: 91 °C for the first, 62 °C for the second.

Compared with O=S(=O)(O)c1ccc2c(c1)CNC(C(Cl)(Cl)Cl)O2 (centres undefined), CS(=O)(=O)c1ccc(-c2cccn2-c2ccc(OC(F)(F)F)cc2)cc1 is lower in melting point: greater than 260 °C for the first, 150 to 152 °C for the second.

First: CC(CO)c1ccc(O)c(Cc2ccccc2O)c1 (centres undefined)
Second: NCC(O)COc1cccc2ccccc12 (centres undefined)
The melting point of the first is lower: 86 to 89 °C for the first, 106 °C for the second.

Compared with O=C1C(=NO)SCCN1Cc1ccccc1, OCc1ccc2c(c1)C=C(n1ccnc1)CC2 is lower in melting point: 225 to 227 °C for the first, 88 to 91 °C for the second.

Compound CCC(=O)N1C(=O)C2C=CC1C2 (centres undefined) has a melting point of 54 to 56 °C.

Source: a melting point compilation (Tetko et al.; mined from patent text by program, amines drawn as free bases though some values may be those of a salt)
